In test [1] the test system is Klebsiella pneumoniae. The test is described as follows: Potentiation of imipenem-induced antibacterial activity against VIM-1 expressing Klebsiella pneumoniae assessed as imipenem MIC incubated for 22 to 24 hrs (reference value: 16 ug/ml). The class given is functional. To be noted: time 22-24 hrs.
Test [2] is described as follows: Selectivity ratio of MITC50 for NDM-1 expressing Escherichia coli to IC50 for GST-tagged bacterial beta-lactamase […].
The nature of test [3]: Selectivity ratio of MITC50 for VIM-1 expressing Klebsiella pneumoniae to IC50 for GST-tagged bacterial beta-lactamase VIM-1.
Test [4] is described as follows: Inhibition of GST-tagged bacterial beta-lactamase VIM-1 expressed in Escherichia coli BL21(DE3) using CCF2-FA as substrate by fluorescence assay. Also on record: species or system Bacteria.
The subject of test [5] is Escherichia coli. Description: Antibacterial activity against Escherichia coli CLB30005 expressing NDM-1 assessed as growth inhibition in presence of ZnSO4. It is filed as functional, organism-based.
The nature of test [6]: Inhibition of GST-tagged bacterial beta-lactamase IMP-1 expressed in Escherichia coli BL21(DE3) using CCF2-FA as substrate by fluorescence assay. More on the design: species or system Bacteria.
The nature of test [7]: Inhibition of GST-tagged bacterial beta-lactamase […] expressed in Escherichia coli BL21(DE3) using CCF2-FA as substrate by fluorescence assay. Also on record: species or system Bacteria.
A further test relates to Serratia marcescens. Description: Potentiation of imipenem-induced antibacterial activity against IMP-1 expressing Serratia marcescens assessed as imipenem MIC incubated for 22 to 24 hrs (reference value: 16 ug/ml). It is filed as functional. The conditions noted are these: time 22-24 hrs.
Test [8] in a line: Selectivity ratio of MITC50 for IMP-1 expressing Serratia marcescens to IC50 for GST-tagged bacterial beta-lactamase IMP-1.
For test [9], the system named is Escherichia coli. The test is described as follows: Potentiation of imipenem-induced antibacterial activity against NDM-1 expressing Escherichia coli assessed as imipenem MIC incubated for 22 to 24 hrs (reference value: 32 ug/ml). The class given is functional. To be noted: time 22-24 hrs.
Test [10] has as its system Klebsiella pneumoniae. The test is described as follows: Antibacterial activity against Klebsiella pneumoniae MB9249 expressing IMP-26 infected in cyclophosphamide treated DBA/2 mouse assessed as reduction in bacterial burden in spleen at 10 to 50 mg/kg, sc administered three times for 1 day and measured after 24 hrs post injection in presence of imipenem. The class given is functional, organism-based. To be noted: dose 10-50 mg/kg.

Test [11] deals with Klebsiella pneumoniae. Description: Antibacterial activity against Klebsiella pneumoniae MB9249 expressing IMP-26 infected in cyclophosphamide treated DBA/2 mouse assessed as reduction in bacterial burden in spleen at 10 to 50 mg/kg, sc administered three times for 1 day and measured after 24 hrs post injection. It is filed as functional, organism-based. The conditions noted are these: dose 10-50 mg/kg.

The test system of test [12] is Klebsiella pneumoniae. Description: Antibacterial activity against Klebsiella pneumoniae MB9249 expressing IMP-26 infected in cyclophosphamide treated DBA/2 mouse assessed as reduction in bacterial burden in kidney at 10 to 50 mg/kg, sc administered three times for 1 day and measured after 24 hrs post injection in presence of imipenem. The class given is functional, organism-based. The conditions noted are these: dose 10-50 mg/kg.

For test [13], the system named is Klebsiella pneumoniae. Description: Antibacterial activity against Klebsiella pneumoniae MB9249 expressing IMP-26 infected in cyclophosphamide treated DBA/2 mouse assessed as reduction in bacterial burden in kidney at 10 to 50 mg/kg, sc administered three times for 1 day and measured after 24 hrs post injection. It is filed as functional, organism-based. To be noted: dose 10-50 mg/kg.

The nature of test [14]: Inhibition of Cav1.5 (unknown origin). More on the design: species or system Homo sapiens.

12 molecules from ChEMBL document CHEMBL5236617, “Rapid Evolution of a Fragment-like Molecule to Pan-Metallo-Beta-Lactamase Inhibitors: Initial Leads toward Clinical Candidates” (J Med Chem, 2022) can be followed below.

Values joined by “and” are separate entries in the source; they are usually repeats but may differ in a detail not shown here. Equal entries are not always repeated. Active and inactive are the calls of the source. The calls are words filed in the database; no cut-off is given here. A value given as a limit tells only on which side of the number the result lay.

In the case of `Cc1ccc(-c2cccc(S(N)(=O)=O)c2-c2nnn[nH]2)cc1`, the results for the MITC95 in the test with Klebsiella pneumoniae [1], with Serratia marcescens and with Escherichia coli [9] were 127 µM, 13.8 µM and 1.48 µM, respectively. For the same molecule, the figures for the Selectivity ratio in test [2], in test [3] and in [8] were 400, 2230 and 215, respectively. In addition, the IC50 (commonly the midpoint of a concentration-inhibition curve) is 57.5 nM and 57 nM in test [4]; 64 nM in test [6]; 3.9 nM and 3.7 nM in test [7]. Besides, in the test on Escherichia coli [5], the result was inactive.
As to `CCCc1c(OCc2cccc(-c3ccccc3-c3nnn[nH]3)c2)ccc(C(C)=O)c1O`, the IC50 worked out at 23 nM in test [4], 1 nM in test [6] and 35 nM in test [7].
Consider `NS(=O)(=O)c1nccc(-c2ccccc2)c1-c1nn[nH]n1`, for which the IC50 was 201 nM in test [4], 375 nM in test [6] and 35 nM in test [7]. In the test on Escherichia coli [9], the MITC95 is less than 0.195 µM.
In the case of `c1ccc(-c2ccccc2-c2nn[nH]n2)cc1`, the IC50 in test [4] was 22 nM; in [6] it was 2 nM; in test [7], 44 nM.
For `NS(=O)(=O)c1ccnc(-c2ccc(CO)cc2)c1-c1nn[nH]n1`, the MITC95 is greater than 200 µM in the test with Klebsiella pneumoniae [1], 37 µM in the test with Serratia marcescens and 2.3 µM with Escherichia coli [9]. Moreover, the IC50 in test [4] was determined as 4130 nM; in test [6], 767 nM; in test [7], 36 nM.
For `NS(=O)(=O)c1nccc(-c2ccc(CO)cc2)c1-c1nn[nH]n1`, the outcome in the test with Klebsiella pneumoniae [10] and in the test with Klebsiella pneumoniae [12] was Active. Besides, the MITC95 in the test on Klebsiella pneumoniae [1] came out at 11.76 µM; in the test on Serratia marcescens, 5.19 µM; with Escherichia coli [9], 0.558 µM. In addition, the IC50 in [4] is 269 nM; in test [6], 369 nM; in test [14], greater than 30000 nM; in test [7], 35 nM. The result in the test on Klebsiella pneumoniae [11] and in the test on Klebsiella pneumoniae [13] was inactive.
As to `NS(=O)(=O)c1cccc(-c2ccc(CO)cc2)c1-c1nn[nH]n1`, the MITC95 in the test with Klebsiella pneumoniae [1] is 50 µM. Further, the IC50 in test [4] was 58 nM; in test [6] it was 46 nM; in test [7], 2.4 nM.
With `CC(CS)C(=O)N1CCc2ccccc2C1C(=O)O` (stereo not drawn), the IC50 in test [4] was determined as 7.4 nM; in [6], 2.7 nM; in [7], 3.5 nM.
As to `NS(=O)(=O)c1cncc(-c2ccc(CO)cc2)c1-c1nn[nH]n1`, the MITC95 was determined as 100 µM in the test with Klebsiella pneumoniae [1] and 1.56 µM in the test with Escherichia coli [9]. Also, the IC50 was 670 nM in test [4], 678 nM in test [6] and 21 nM in test [7].
As for `OCc1ccc(-c2cccc(O)c2-c2nnn[nH]2)cc1`, the results for the IC50 in test [4], in test [6] and in test [7] were 7200 nM, greater than 20000 nM and 704 nM, respectively.
The matching figures for `O=C(O)COc1ccc2c(c1)CCN(C(=O)C(CS)CCc1ccccc1)C2C(=O)O` (stereo not drawn): 2.48 nM, 0.155 nM and 0.243 nM.
For `Cc1ccc(-c2cccc(S(=O)(=O)O)c2-c2nnn[nH]2)cc1` the same measures were 8640 nM, 2360 nM and 4960 nM.
